Laboratory results taken from ChEMBL document CHEMBL1201862, “PubChem BioAssay data set” (2004).
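How tested: cells in 96-well plates exposed to compound for 48 hours at five concentrations. GI50 is the concentration that inhibits growth by half.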 Active and inactive are the calls of the source. Rule as the data show it: active = GI50 up to about 1.1 µM and inactive = higher. Non-standard residues stand in square brackets, D forms with d. Residues, ends and D or L forms follow the SMILES beside them. *: point of attachment. X30 = COC1=CC(=O)N(C(=O)[C@@H](O*)C(C)C)[C@H]1Cc1ccccc1; NMeL = CN[C@@H](CC(C)C)C(=O)O; Cbz = O=C(OCc1ccccc1)*

Tests used:
Assay in all cases: NCI tumour cell line growth inhibition, 48 h
[1] = tested on: 786-0
[2] = tested on: A498
[3] = tested on: ACHN
[4] = tested on: CCRF-CEM
[5] = tested on: DU-145
[6] = tested on: HCC 2998
[7] = tested on: HCT-116
[8] = tested on: HOP-62
[9] = tested on: HT-29
[10] = tested on: Hs-578T
[11] = tested on: K562
[12] = tested on: KM12
[13] = tested on: MCF7
[14] = tested on: NCI-H460
[15] = tested on: SF-295
[16] = tested on: SK-MEL-2
[17] = tested on: SK-MEL-5
[18] = tested on: SW-620
[19] = tested on: COLO 205
[20] = tested on: UACC-62

Measured: GI50

CC1=NN(c2nc(N)nc(/C(C#N)=C\C3COc4ccccc4C3=O)n2)C(C)(C)C1 (stereo not given)
inactive: [1] 19.2 µM | [2] 17.9 µM | [3] 23.6 µM | [4] 1.9 µM | [5] 31.6 µM | [6] 30.4 µM | [7] 20.6 µM | [8] 32.7 µM | [9] 26.5 µM | [10] 24 µM | [11] 32.1 µM | [12] 36.7 µM | [13] 32.4 µM | [14] 26.9 µM | [15] 31.3 µM | [16] 14.8 µM | [17] 18.7 µM | [18] 30.7 µM

CCOC(=O)Cc1csc(NC(NC(=O)OCC)(C(=O)OCC)C(F)(F)F)n1 (stereo not given)
inactive: [1] > 100 µM | [2] > 100 µM | [3] > 100 µM | [4] > 100 µM | [19] > 100 µM | [5] > 100 µM | [6] > 100 µM | [7] > 100 µM | [8] > 100 µM | [9] > 100 µM | [10] > 100 µM | [11] > 100 µM | [12] > 100 µM | [13] > 100 µM | [14] > 100 µM | [15] > 100 µM | [16] > 100 µM | [17] > 100 µM | [18] > 100 µM

CCCCSC1=N/C(=C\c2ccc(N(C)C)cc2)C(NN)=N1
inactive: [1] > 100 µM | [2] > 100 µM | [3] > 100 µM | [4] > 100 µM | [5] > 100 µM | [6] > 100 µM | [7] > 100 µM | [8] > 100 µM | [9] > 100 µM | [10] > 100 µM | [11] > 100 µM | [12] > 100 µM | [13] > 100 µM | [14] > 100 µM | [15] > 100 µM | [16] > 100 µM | [18] > 100 µM | [20] > 100 µM

O=C1c2ccccc2C(=O)c2c1c1cc(O)ccc1n2Cc1ccc(Cl)cc1Cl
inactive: [1] 2.75 µM | [2] 17.2 µM | [4] 4.12 µM | [19] 15.1 µM | [5] 8.13 µM | [7] 6.18 µM | [8] 2.61 µM | [9] 16.6 µM | [10] 14 µM | [11] 32.2 µM | [12] 14.4 µM | [13] 4.11 µM | [14] 3.63 µM | [15] 7.5 µM | [16] 16 µM | [17] 17.2 µM | [18] 8.17 µM | [20] 7.66 µM

Cc1cn([C@H]2[C@@H](CO)C[C@H]2O)c(=O)[nH]c1=O
inactive: [1] > 100 µM | [2] > 100 µM | [3] > 100 µM | [4] > 100 µM | [19] > 100 µM | [5] > 100 µM | [6] > 100 µM | [7] > 100 µM | [8] > 100 µM | [9] > 100 µM | [10] > 100 µM | [11] > 100 µM | [12] > 100 µM | [13] > 100 µM | [14] > 100 µM | [15] > 100 µM | [16] > 100 µM | [17] > 100 µM | [18] > 100 µM

COC1=CC(=O)N(C(=O)[C@@H](OC(=O)[C@@H]2CCCN2C(=O)[C@@H]2CCCN2C(=O)[C@H](CC(C)C)N(C)C(=O)[C@@H](NC(=O)[C@@H](NC(=O)OCc2ccccc2)C(C)C)C(C)C)C(C)C)[C@H]1Cc1ccccc1 (Cbz-VV[NMeL]PP-X30)
inactive: [1] 23.3 µM | [2] 19.6 µM | [3] > 100 µM | [4] 35.3 µM | [19] > 100 µM | [5] > 100 µM | [6] > 100 µM | [7] 44.6 µM | [8] 21.4 µM | [9] > 100 µM | [10] > 100 µM | [11] > 100 µM | [12] > 100 µM | [13] 56 µM | [14] 52.7 µM | [15] 20.3 µM | [16] 9.42 µM | [18] > 100 µM | [20] 48.1 µM

O=C1/C(=C\c2ccc(Br)cc2)CCCc2ccccc21
inactive: [1] 14.6 µM | [2] 23.8 µM | [3] 16.9 µM | [4] 19.7 µM | [19] 17.9 µM | [5] 15.5 µM | [6] 14.7 µM | [7] 12.4 µM | [8] 46.5 µM | [9] 15 µM | [10] 17.3 µM | [11] 41.8 µM | [12] 15.6 µM | [13] 19.5 µM | [14] 17 µM | [15] 22 µM | [16] 19.1 µM | [18] 16.9 µM | [20] 13.3 µM
